Test results as given in article PMC7156458, “Synthetic biology based construction of biological activity-related library of fungal decalin-containing diterpenoid pyrones” (Nature Communications, 2020).

Biological target: Aβ42 (Homo sapiens, UniProt P05067)
Experiment: Th-T (thioflavin-T) assay of Aβ42 aggregation
Assay type: biochemical
Conditions: for Th-T fluorescence of Aβ42 (sheet Fig. 7a), mean of three wells: head suffix _50 (concentration 50); for Th-T assay plate reading, mean of three wells (Supplementary Fig. 47): source data, Ab alone and No Ab as controls; for Th-T fluorescence, mean of three wells: Supplementary Fig. 47 source data

Sequence of Aβ42 (P05067 672-713): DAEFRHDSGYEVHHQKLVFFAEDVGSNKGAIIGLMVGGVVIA

C=C1CC[C@@H]2[C@](C)(CC[C@H]3O[C@H](C=C(C)C)C[C@@]23C)[C@@H]1Cc1c(OC)oc(CO)c(C)c1=O [Compound 20]
Th-T fluorescence of Aβ42 (sheet Fig. 7a), mean of three wells (reading M73): 2.113
Th-T fluorescence of Aβ42 (sheet Fig. 7a), mean of three wells (reading M74): 2.11
Th-T fluorescence of Aβ42 (sheet Fig. 7a), mean of three wells (reading M75): 2.1032
Th-T fluorescence of Aβ42 (sheet Fig. 7a), mean of three wells (reading M76): 2.123
Th-T fluorescence of Aβ42 (sheet Fig. 7a), mean of three wells (reading M77): 2.122
Th-T fluorescence of Aβ42 (sheet Fig. 7a), mean of three wells (reading M78): 2.117
Th-T fluorescence of Aβ42 (sheet Fig. 7a), mean of three wells (reading M79): 2.1153
Th-T fluorescence of Aβ42 (sheet Fig. 7a), mean of three wells (reading M80): 2.1
Th-T fluorescence of Aβ42 (sheet Fig. 7a), mean of three wells (reading M81): 2.1
Th-T fluorescence of Aβ42 (sheet Fig. 7a), mean of three wells (reading M82): 2.102
Th-T fluorescence of Aβ42 (sheet Fig. 7a), mean of three wells (reading M83): 2.096
Th-T fluorescence of Aβ42 (sheet Fig. 7a), mean of three wells (reading M84): 2.077
Th-T assay plate reading, mean of three wells (Supplementary Fig. 47) (measurement M1): 0.2292
Th-T assay plate reading, mean of three wells (Supplementary Fig. 47) (measurement M2): 0.2238
Th-T assay plate reading, mean of three wells (Supplementary Fig. 47) (measurement M3): 0.2417
Th-T assay plate reading, mean of three wells (Supplementary Fig. 47) (measurement M4): 0.2884
Th-T assay plate reading, mean of three wells (Supplementary Fig. 47) (measurement M5): 0.3754
Th-T assay plate reading, mean of three wells (Supplementary Fig. 47) (measurement M6): 0.3834
Th-T assay plate reading, mean of three wells (Supplementary Fig. 47) (measurement M7): 0.4602
Th-T assay plate reading, mean of three wells (Supplementary Fig. 47) (measurement M8): 0.4852
Th-T assay plate reading, mean of three wells (Supplementary Fig. 47) (measurement M9): 0.5189
Th-T assay plate reading, mean of three wells (Supplementary Fig. 47) (measurement M10): 0.5747
Th-T assay plate reading, mean of three wells (Supplementary Fig. 47) (measurement M11): 0.6382
Th-T assay plate reading, mean of three wells (Supplementary Fig. 47) (measurement M12): 0.9536
Th-T assay plate reading, mean of three wells (Supplementary Fig. 47) (measurement M13): 1.7846
Th-T assay plate reading, mean of three wells (Supplementary Fig. 47) (measurement M14): 2.679
Th-T assay plate reading, mean of three wells (Supplementary Fig. 47) (measurement M15): 3.243
Th-T assay plate reading, mean of three wells (Supplementary Fig. 47) (measurement M16): 3.548
Th-T fluorescence, mean of three wells (Fig. 7a) (reading M107, compound at 10 (head suffix _10)): 3.243
Th-T fluorescence, mean of three wells (Fig. 7a) (reading M107, compound at 20 (head suffix _20)): 3.218
Th-T fluorescence, mean of three wells (Fig. 7a) (reading M107, compound at 50 (head suffix _50)): 2.093
Th-T fluorescence, mean of three wells (Fig. 7a) (reading M108, compound at 10 (head suffix _10)): 3.266
Th-T fluorescence, mean of three wells (Fig. 7a) (reading M108, compound at 20 (head suffix _20)): 3.22
Th-T fluorescence, mean of three wells (Fig. 7a) (reading M108, compound at 50 (head suffix _50)): 2.097
Th-T fluorescence, mean of three wells (Fig. 7a) (reading M109, compound at 10 (head suffix _10)): 3.248
Th-T fluorescence, mean of three wells (Fig. 7a) (reading M109, compound at 20 (head suffix _20)): 3.217
Th-T fluorescence, mean of three wells (Fig. 7a) (reading M109, compound at 50 (head suffix _50)): 2.11
Th-T fluorescence, mean of three wells (Fig. 7a) (reading M110, compound at 10 (head suffix _10)): 3.266
Th-T fluorescence, mean of three wells (Fig. 7a) (reading M110, compound at 20 (head suffix _20)): 3.23
Th-T fluorescence, mean of three wells (Fig. 7a) (reading M110, compound at 50 (head suffix _50)): 2.1005
Th-T fluorescence, mean of three wells (Fig. 7a) (reading M111, compound at 10 (head suffix _10)): 3.255
Th-T fluorescence, mean of three wells (Fig. 7a) (reading M111, compound at 20 (head suffix _20)): 3.22
Th-T fluorescence, mean of three wells (Fig. 7a) (reading M111, compound at 50 (head suffix _50)): 2.105
Th-T fluorescence, mean of three wells (Fig. 7a) (reading M112, compound at 10 (head suffix _10)): 3.256
Th-T fluorescence, mean of three wells (Fig. 7a) (reading M112, compound at 20 (head suffix _20)): 3.191
Th-T fluorescence, mean of three wells (Fig. 7a) (reading M112, compound at 50 (head suffix _50)): 2.0956
Th-T fluorescence, mean of three wells (Fig. 7a) (reading M113, compound at 10 (head suffix _10)): 3.234
Th-T fluorescence, mean of three wells (Fig. 7a) (reading M113, compound at 20 (head suffix _20)): 3.181
Th-T fluorescence, mean of three wells (Fig. 7a) (reading M113, compound at 50 (head suffix _50)): 2.0902
Th-T fluorescence, mean of three wells (Fig. 7a) (reading M114, compound at 10 (head suffix _10)): 3.244
Th-T fluorescence, mean of three wells (Fig. 7a) (reading M114, compound at 20 (head suffix _20)): 3.188
Th-T fluorescence, mean of three wells (Fig. 7a) (reading M114, compound at 50 (head suffix _50)): 2.0998
Th-T fluorescence, mean of three wells (Fig. 7a) (reading M115, compound at 10 (head suffix _10)): 3.222
Th-T fluorescence, mean of three wells (Fig. 7a) (reading M115, compound at 20 (head suffix _20)): 3.199
Th-T fluorescence, mean of three wells (Fig. 7a) (reading M115, compound at 50 (head suffix _50)): 2.1006
Th-T fluorescence, mean of three wells (Fig. 7a) (reading M116, compound at 10 (head suffix _10)): 3.244
Th-T fluorescence, mean of three wells (Fig. 7a) (reading M116, compound at 20 (head suffix _20)): 3.193
Th-T fluorescence, mean of three wells (Fig. 7a) (reading M116, compound at 50 (head suffix _50)): 2.109
Th-T fluorescence, mean of three wells (Fig. 7a) (reading M117, compound at 10 (head suffix _10)): 3.211
Th-T fluorescence, mean of three wells (Fig. 7a) (reading M117, compound at 20 (head suffix _20)): 3.166
Th-T fluorescence, mean of three wells (Fig. 7a) (reading M117, compound at 50 (head suffix _50)): 2.104
Th-T fluorescence, mean of three wells (Fig. 7a) (reading M118, compound at 10 (head suffix _10)): 3.228
Th-T fluorescence, mean of three wells (Fig. 7a) (reading M118, compound at 20 (head suffix _20)): 3.17
Th-T fluorescence, mean of three wells (Fig. 7a) (reading M118, compound at 50 (head suffix _50)): 2.102
Th-T fluorescence, mean of three wells (Fig. 7a) (reading M119, compound at 10 (head suffix _10)): 3.2146
Th-T fluorescence, mean of three wells (Fig. 7a) (reading M119, compound at 20 (head suffix _20)): 3.1938
Th-T fluorescence, mean of three wells (Fig. 7a) (reading M119, compound at 50 (head suffix _50)): 2.1065
Th-T fluorescence, mean of three wells (Fig. 7a) (reading M120, compound at 10 (head suffix _10)): 3.221
Th-T fluorescence, mean of three wells (Fig. 7a) (reading M120, compound at 20 (head suffix _20)): 3.171
Th-T fluorescence, mean of three wells (Fig. 7a) (reading M120, compound at 50 (head suffix _50)): 2.103
Th-T fluorescence, mean of three wells (Fig. 7a) (reading M121, compound at 10 (head suffix _10)): 3.196
Th-T fluorescence, mean of three wells (Fig. 7a) (reading M121, compound at 20 (head suffix _20)): 3.1528
Th-T fluorescence, mean of three wells (Fig. 7a) (reading M121, compound at 50 (head suffix _50)): 2.099
Th-T fluorescence, mean of three wells (Fig. 7a) (reading M122, compound at 10 (head suffix _10)): 3.2052
Th-T fluorescence, mean of three wells (Fig. 7a) (reading M122, compound at 20 (head suffix _20)): 3.15
Th-T fluorescence, mean of three wells (Fig. 7a) (reading M122, compound at 50 (head suffix _50)): 2.114
Th-T fluorescence, mean of three wells (Fig. 7a) (reading M123, compound at 10 (head suffix _10)): 3.204
Th-T fluorescence, mean of three wells (Fig. 7a) (reading M123, compound at 20 (head suffix _20)): 3.156
Th-T fluorescence, mean of three wells (Fig. 7a) (reading M123, compound at 50 (head suffix _50)): 2.111
Th-T fluorescence, mean of three wells (Fig. 7a) (reading M124, compound at 10 (head suffix _10)): 3.218
Th-T fluorescence, mean of three wells (Fig. 7a) (reading M124, compound at 20 (head suffix _20)): 3.1455
Th-T fluorescence, mean of three wells (Fig. 7a) (reading M124, compound at 50 (head suffix _50)): 2.111
Th-T fluorescence, mean of three wells (Fig. 7a) (reading M125, compound at 10 (head suffix _10)): 3.1992
Th-T fluorescence, mean of three wells (Fig. 7a) (reading M125, compound at 20 (head suffix _20)): 3.1234
Th-T fluorescence, mean of three wells (Fig. 7a) (reading M125, compound at 50 (head suffix _50)): 2.096
Th-T fluorescence, mean of three wells (Fig. 7a) (reading M126, compound at 10 (head suffix _10)): 3.205
Th-T fluorescence, mean of three wells (Fig. 7a) (reading M126, compound at 20 (head suffix _20)): 3.128
Th-T fluorescence, mean of three wells (Fig. 7a) (reading M126, compound at 50 (head suffix _50)): 2.099
Th-T fluorescence, mean of three wells (Fig. 7a) (reading M127, compound at 10 (head suffix _10)): 3.195
Th-T fluorescence, mean of three wells (Fig. 7a) (reading M127, compound at 20 (head suffix _20)): 3.121
Th-T fluorescence, mean of three wells (Fig. 7a) (reading M127, compound at 50 (head suffix _50)): 2.104
Th-T fluorescence, mean of three wells (Fig. 7a) (reading M128, compound at 10 (head suffix _10)): 3.198
Th-T fluorescence, mean of three wells (Fig. 7a) (reading M128, compound at 20 (head suffix _20)): 3.11
Th-T fluorescence, mean of three wells (Fig. 7a) (reading M128, compound at 50 (head suffix _50)): 2.109
Th-T fluorescence, mean of three wells (time-course reading M97): 4.216
Th-T fluorescence, mean of three wells (time-course reading M98): 4.216
Th-T fluorescence, mean of three wells (time-course reading M99): 4.236
Th-T fluorescence, mean of three wells (time-course reading M100): 4.238
Th-T fluorescence, mean of three wells (time-course reading M101): 4.225
Th-T fluorescence, mean of three wells (time-course reading M102): 4.201
Th-T fluorescence, mean of three wells (time-course reading M103): 4.222
Th-T fluorescence, mean of three wells (time-course reading M104): 4.203
Th-T fluorescence, mean of three wells (time-course reading M105): 4.225
Th-T fluorescence, mean of three wells (time-course reading M106): 4.21
Th-T fluorescence, mean of three wells (time-course reading M107): 4.216
Th-T fluorescence, mean of three wells (time-course reading M108): 4.2224
Th-T fluorescence, mean of three wells (time-course reading M109): 4.227
Th-T fluorescence, mean of three wells (time-course reading M110): 4.248
Th-T fluorescence, mean of three wells (time-course reading M111): 4.24
Th-T fluorescence, mean of three wells (time-course reading M112): 4.225
Th-T fluorescence, mean of three wells (time-course reading M113): 4.225
Th-T fluorescence, mean of three wells (time-course reading M114): 4.212
Th-T fluorescence, mean of three wells (time-course reading M115): 4.199
Th-T fluorescence, mean of three wells (time-course reading M116): 4.199
